The text below walks through data of US6599917B1, “Quinuclidine compounds and drugs containing the same as the active ingredient” (priority 1999, dated 2003).

Assay [1] deals with cholesterol biosynthesis. Briefly: Measurement of cholesterol biosynthesis inhibitive activity in a rat. The format is in vivo. The following applies: 2 h, male SD rat, oral, inhibition rate to control group. As to the method:
Measurement of Cholesterol Biosynthesis Inhibitive Activity in a Rat
(I) An SPF grade male SD rat (4 weeks age, SLC) was bred for more than one week in a day-night-reversal room and subjected to an experiment made in the daytime. The compound dissolved in a 2% Tween 80 solution was administered (5 ml/kg) to the rat using an oral sonde. After one hour, a [1-^14C]Acetic acid, sodium salt (1.67-2.22 GBq/mmol, 37 MBq/ml, NEN) prepared by diluting to 1.85 MBq/ml by using physiological saline was intraabdominally administered (300 μ1/animal). After one hour, the rat was anesthetized by diethyl ether to carry out exsanguination from the aorta abdominalis. The collected blood was centrifuged at 3000 rpm for 10 minutes to prepare blood plasma.
(II) 1 ml of 4N KOH and 1 ml of ethanol were added to 2 ml of the blood plasma, which was then incubated at 65° C. for one hour and there after, 3 ml of petroleum ether was added. The plasma was shaken for 30 minutes. After the water phase was separated from the organic phase by centrifugation, it was frozen at −80° C. and the radiative activity of the organic phase was measured using a liquid scintillation counter. Or the organic phase was evaporated to dryness using nitrogen gas and the residue was dissolved as a marker in 25 µl of chloroform containing squalene, farnesol and cholesterol. This sample was applied to a TCL plate (Merck) and developed using toluene and isopropyl ether (1:1) for 15 to 20 minutes. A band of cholesterol was cut from the plate to measure the radiative activity by using a liquid scintillation counter. The cholesterol biosynthesis inhibition activity was expressed by an inhibition rate (%) to a control group.

Assay [2] concerns triglyceride biosynthesis. Briefly: Measurement of triglyceride biosynthesis inhibitive activity in a rat liver cell. In kind it is cell-based. The following applies: for inhibition at 1 µM: Rattus norvegicus, 6 h, read-out: Triglyceride biosynthesis inhibitive activity inhibition in 1 μM of the specimen; for Triglyceride biosynthesis inhibitive activity inhibition in 1 μM of the specimen: isolated rat liver cells, [1-14C]acetic acid added 4 hours after the specimen, inhibition rate to control group. As to the method:
(§1) Measurement of Cholesterol and Triglyceride Biosynthesis Inhibitive Activities in a Rat Liver Cell
(§2) A liver cell was isolated from a male SD rat according to a usual method (collagenase perfusion method) and subjected to an experiment.
(§3) The isolated liver cells were planted in an amount of 500 μ1 every well on a Type collagen coated 24 well plate (cell density: 4×10^5 cell/ml). As the cell culture solution, a Williams'E medium (adjusted to pH 7.4) containing 10% FCS, 1 μM insulin, 1 μM dexamethasone, 100 units/ml penicillin and 10 μg/ml streptomycin was used. After the liver cells were incubated in a CO2 incubator for 2 hours, unstuck cells were removed and the liver cells were further incubated overnight.
(§4) After the culture medium was exchanged, the specimen diluted in a 10% DMSO-90% cell culture solution was added to each well in an amount of 5 μ1. DMSO (final concentration: 0.1%) was added to a control group. A [1-^14C]Acetic acid, sodium salt (5 μCi/well) was added to the media 10 minutes and 4 hours after the specimen was added for the measurement of cholesterol synthesis inhibitive action and for the measurement of triglyceride synthesis inhibitive action respectively, followed by culturing for further 2 hours.
(§5) After the cultivation was finished, the supernatant was removed and the cells were washed using PBS(−)(Phosphate buffered saline (Ca^2+, Mg^2+free) twice. Hexane/isopropyl alcohol (3:2, v/v) was added to the cells and the cells were then allowed to stand for 10 minutes to extract intracellular lipid. The extract was transferred to a glass tube and exsiccated under a nitrogen gas stream. Further, the exsiccated extract was washed with 25 mL of petroleum ether and then dissolved in petroleum ether containing the following components: 0.01% squalene, 0.3% free cholesterol, 0.3% cholesterol acetate, 0.1% triolein, 0.01% farnesol and 0.3% lanosterol.
(§6) The resulting solution was spotted on a TLC plate to perform an isolating operation. The spotted solution was developed for 10 minutes by using toluene/isopropyl ether (1:1, v/v) as the solvents and for further 15 minutes by using heptane in place of the above solvent after it was dried using air.
(§7) After the development was finished, the TLC plate was subjected to iodine color development. After each position of free cholesterol and triolein which were used as standards was confirmed, the image of the TLC plate was transferred to a BAS 2000 (Fuji Film) imaging plate by exposure performed for 16 hours. This transferred image was analyzed using a BAS 2000 IP Reader and an Imaging analyzer II to measure radiative activities contained in the free cholesterol and triglyceride fractions.
(§8) The cholesterol biosynthesis inhibitive activity was expressed by a concentration (IC50) at which 50% of the radiative activity of the control group was inhibited and the triceride biosynthesis inhibitive activity was expressed by an inhibition rate (%) to the control group.

Assay [3] deals with cholesterol biosynthesis. Briefly: Measurement of cholesterol biosynthesis inhibitive activity in a rat liver cell. The format is cell-based. The following applies: isolated rat liver cells, [1-14C]acetic acid added 10 minutes after the specimen. As to the method:
as §1, §2, §3, §4, §5, §6, §7, §8

Assay [4] has as its target T1, squalene synthesizing enzyme (Rattus norvegicus, UniProt Q02769).
T1 construct: The liver was excised from a male Spraugue-Dawly rat; from tissue; host or cells: liver microsome fraction of male Sprague-Dawley rat (8 to 9 weeks)
T1 sequence (Q02769 1-416): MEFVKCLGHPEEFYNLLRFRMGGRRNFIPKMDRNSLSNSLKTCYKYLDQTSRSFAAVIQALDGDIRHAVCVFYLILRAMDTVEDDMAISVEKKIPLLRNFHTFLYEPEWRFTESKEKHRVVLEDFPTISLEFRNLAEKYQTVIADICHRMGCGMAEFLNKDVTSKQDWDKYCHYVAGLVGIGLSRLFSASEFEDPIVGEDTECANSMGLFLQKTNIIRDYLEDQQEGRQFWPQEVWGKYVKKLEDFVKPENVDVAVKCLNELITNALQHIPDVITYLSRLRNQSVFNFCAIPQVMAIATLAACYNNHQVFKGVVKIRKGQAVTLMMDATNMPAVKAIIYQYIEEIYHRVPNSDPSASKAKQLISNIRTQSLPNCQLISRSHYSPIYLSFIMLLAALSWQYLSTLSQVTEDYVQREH
Briefly: Measurement of squalene synthesizing enzyme inhibitive activity by using a rat liver microsome. In kind it is biochemical. The following applies: [3H]-farnesylpyrophosphoric acid. As for the experimental part: Measurement of Squalene Synthesizing Enzyme Inhibitive Activity by Using a Rat Liver Microsome
(I) The reaction was run on a scale of 500 μ1. 200 µl of a solution containing 125 mM tris-hydrochloric acid (pH: 7.3), 2.5 mM magnesium chloride, 5 mM potassium fluoride and 10 mM reduction type nicotinamidoadenine dinucleotide phosphoric acid, 100 µl of the specimen solution with a 5-fold concentration, 100 µl of distilled water and 50 µl of 0.4 to 1 mg/ml rat liver microsome prepared by the following method were mixed.
(II) The above mixture was pre-incubated at 37° C. for 10 minutes and thereafter, 50 µl of 100 μM [^3H]-farnesylpyrophosphoric acid (30 mCi/mmol, NEN) was added to the mixture to start a reaction. The reaction was continued at 37° C. for 10 minutes. 1 ml of ethanol was added to the resulting mixture to terminate the reaction and then 1 ml of distilled water and 3 ml of petroleum ether were added to the reaction solution, which was then shaken for 30 minutes. The water phase was separated from the oil phase, the water phase was frozen at −70° C. in dry ice/methanol and the radiative activity of the organic phase was measured using a liquid scintillator. Or the organic phase was evaporated to dryness using nitrogen gas and the residue was dissolved as a marker in 25 µl of chloroform containing squalene, farnesol and cholesterol. This sample was spotted on a TCL plate (Merck) and developed using heptane for 15 to 20 minutes. A band of squalene was cut from the plate to measure the radiative activity by using a liquid scintillation counter. The data was expressed by a concentration (IC50) at which 50% of the radiative activity of a control group was inhibited.
Method of the Preparation of a Rat Liver Microsome
The following operations were all carried out on ice and the centrifugation was performed at 4° C. The liver was excised from a male Spraugue-Dawly rat (hereinafter referred to as SD rat) (8 to 9 weeks age) and perfused with 1.15% potassium chloride to remove the blood. Then, the liver was minced using a forceps and the minced liver was homogenized using a Teflon homogenizer. The resulting sample was centrifuged at 16000×g twice for 15 minutes. The supernatant was further centrifuged at 105000×g for 60 minutes. The obtained deposit was determined as a microsome fraction, which was then suspended in a 25 mM tris-hydrochloric acid solution. The concentration of protein was measured quantitatively by a Bradford method and the concentration of protein was adjusted to 20 mg/ml by using the same solution. The resulting solution was stored at […].

Usually inhibition in vivo stands for the percentage by which the read-out fell short of the control. One may read the inhibition as the percentage by which the read-out fell short of the control. For `O[C@]1(C#Cc2ccc(OCCCF)nc2Cc2ccccc2)CN2CCC1CC2` [Example 150, (3R)-3-[2-Benzyl-6-(3-fluoropropyl)oxy-3-pyridyl]ethynyl-3-quinuclidinol], testing at 1 mg/kg in assay [1] (dose 1 mg/kg) gave an inhibition in vivo of 73%. Besides, the inhibition at 1 µM in assay [2] stood at 80%. A word on the IC50: it is the concentration at which inhibition is half-maximal. `COC(C)COc1ccc(C#C[C@]2(O)CN3CCC2CC3)c(Cc2ccccc2)n1` (stereo partly drawn) [Example 149, (3S)-3-[2-Benzyl-6-(2-methoxypropyl)oxy-3-pyridyl]ethynyl-3-quinuclidinol] came in with a half-maximal inhibitory concentration (IC50) in assay [3] (10 min) of 590 nM. For “(3R)-3-[4-Benzyl-2-[(3R,4R)-3-hydroxy-4-methoxypyrrolidine-1-yl]-3-pyrimidyl]ethynyl-3-quinuclidinol [Example 201]”, in assay [4], the IC50 is 1.6 nM. Also, in assay [2], the “Triglyceride biosynthesis inhibitive activity inhibition in 1 μM of the specimen” value is given as 85%. For `CO[C@H]1C(=O)N(c2ccc(C#C[C@@]3(O)CN4CCC3CC4)c(Cc3ccccc3)n2)C[C@H]1O` [Example 124, (3R)-3-[2-Benzyl-6-[(3R,4R)-4-hydroxy-3-methoxy-2-pyrrolidinone-1-yl]-3-pyridyl]ethynyl-3-quinuclidinol], the IC50 in assay [4] came out at 1.8 nM; in assay [3] (10 min) it was 81 nM. Further, in assay [2], the inhibition at 1 µM turned out to be 79%. Turning to `O=C1N(c2ccc(C#C[C@@]3(O)CN4CCC3CC4)c(Cc3ccccc3)n2)CCC12OCCO2` [Example 138, (3R)-3-[2-Benzyl-6-(3,3-ethylenedioxy-2-pyrrolidinone-1-yl)-3-pyridyl]ethynyl-3-quinuclidinol], the IC50 in assay [4] was 0.35 nM; in assay [3] (10 min), 14 nM. For the compound `O[C@]1(C#Cc2cnc(-c3ccccn3)cc2Cc2ccccc2)CN2CCC1CC2` [Example 179, (3R)-3-[4-Benzyl-2-(2-pyridyl)-5-pyridyl]ethynyl-3-quinuclidinol], in assay [3] (10 min), the half-maximal inhibitory concentration (IC50) amounted to 130 nM. Moreover, the inhibition at 1 µM in assay [2] amounted to 84%. As to `CO[C@H]1CN(c2ccc(C#C[C@@]3(O)CN4CCC3CC4)c(Cc3ccccc3)n2)C[C@H]1OC` (relative stereo) [Example 120, (3R)-3-[2-Benzyl-6-(cis-3,4-dimethoxyprrolidine-1-yl)-3-pyridyl]ethynyl-3-quinuclidinol], in assay [3], the IC50 was found to be 75 nM. Besides, in assay [2], the “Triglyceride biosynthesis inhibitive activity inhibition in 1 μM of the specimen” value amounted to 80%. As to `CO[C@@H]1CN(c2nc(Cc3ccccc3)c(C#C[C@@]3(O)CN4CCC3CC4)cc2Cl)C[C@H]1O` [Example 116, (3R)-(3R)-3-[2-Benzyl-5-chloro-6[(3R,4R)-3-hydroxy-4-methoxypyrrolidine-1-yl]-3-pyridyl]ethynyl-3-quinuclidinol], the half-inhibitory concentration (IC50) is 0.77 nM in assay [4] and 72 nM in assay [3] (10 min). Regarding `CO[C@H]1CN(c2ccc(C#C[C@@]3(O)CN4CCC3CC4)c(Cc3ccccc3)n2)C[C@H]1O` [Example 106, (3R)-3-[2-Benzyl-6-[(3R,4S)-3-hydroxy-4-methoxypyrrolidine-1-yl)-3-pyridyl]ethynyl-3-quinuclidinol], the IC50 in assay [4] turned out to be 6.9 nM. Besides, the inhibition at 1 µM in assay [2] worked out at 81%. `CO[C@@H]1CN(c2nc(Cc3ccccc3)c(C#C[C@@]3(O)CN4CCC3CC4)cc2Br)C[C@H]1O` [Example 117, (3R)-3-[2-Benzyl-5-bromo-6-[(3R,4R)-3-hydroxy-4-methoxypyrrolidine-1-yl]-3-pyridyl]ethynyl-3-quinuclidinol]: the half-inhibitory concentration (IC50) in assay [4] was 4.5 nM; in assay [3] (10 min), 79 nM. As for `COC(C)COc1ccc(C#C[C@@]2(O)CN3CCC2CC3)c(Cc2ccccc2)n1` (stereo partly drawn) [Example 148, (3R)-3-[2-Benzyl-6-(2-methoxypropyl)oxy-3-pyridyl]ethynyl-3-quinuclidinol], testing at 3 mg/kg in assay [1] (dose 3 mg/kg) gave an inhibition in vivo of 92%. In assay [3] (10 min), 160 nM corresponded to half-maximal inhibition (IC50). For the compound `O[C@]1(C#Cc2cnc(-c3cccnc3)cc2Cc2ccccc2)CN2CCC1CC2` [Example 176, (3R)-3-[4-Benzyl-2-(3-pyridyl)-5-pyridyl]ethynyl-3-quinuclidinol], in assay [2], the inhibition at 1 µM amounted to 74%.

Turning to `OCCCOc1ccc(C#C[C@@]2(O)CN3CCC2CC3)c(Cc2ccccc2)n1` [Example 166, (3R)-3-[2-Benzyl-6-(3-hydroxypropyl)oxy-3-pyridyl]ethynyl-3-quinclidinol], the IC50 in assay [4] is 15 nM. Also, the inhibition at 1 µM in assay [2] came out at 82%.

`O[C@]1(C#Cc2cnc(C3=COCCO3)cc2Cc2ccccc2)CN2CCC1CC2` [Example 186, (3R)-3-[4-Benzyl-2-(1,4-dioxene-2-yl)-5-pyridyl]ethynyl-3-quinuclidinol] showed an IC50 in assay [3] of 69 nM. Compound `CO[C@@H]1CN(c2ccc(C#C[C@@]3(O)CN4CCC3CC4)c(Cc3ccccc3)n2)C[C@@H]1F` [Example 110] had an IC50 in assay [4] of 2.1 nM. In assay [2], the inhibition at 1 µM came out at 84%.
